We go through six compounds from article PMC5207657 (Journal of the American Chemical Society, 2016).

*1 amine or outer side, *2 acyl side, *3 side chain or, on linkers, in order; H or OH if unused. Where a SMILES comes first, the peptide text is derived from it. [ ]: non-standard residue; d: D form. X1 = O=C([C@H]1CCC[C@@H]1N[*:1])[*:2]; X2 = O=C([C@H]1CNC[C@@H]1N[*:1])[*:2]; Aib = CC(C)(N)C(=O)O

Assay [1] concerns the target T1, GLP-1R (Homo sapiens, UniProt P43220). Kind of assay: cell-based. The following applies: HEK293FT, read-out: β-Arrestin-2 Max Response (% GLP-1).
Assay [2] addresses T1, GLP-1R. Put plainly: GloSensor cAMP reporter assay. The assay is classed as cell-based. To be noted: read-out: cAMP Max Response (% GLP-1). For orientation: A reporter such as luciferase makes a cellular process visible.
Assay [3] deals with T1, GLP-1R. Put plainly: β-arrestin-1 recruitment BRET^2 assay. The following applies: for Emax: HEK293FT, read-out: β-Arrestin-1 Max Response (% GLP-1). On the technique in general: Recruitment of arrestin is a read-out of receptor activation apart from second messengers.
For assay [4] the following is noted: previous studies; cited from earlier work.
Assay [5] deals with T1, GLP-1R. The following applies: within the concentration range examined (up to 1 µM).
In the next assay the test system is mouse pancreatic islets. To be noted: cited from earlier work.
Assay [6] deals with Human GLP-1R (glucagon-like peptide-1 receptor) (human) (UniProt P43220).
Sequence of Human GLP-1R (glucagon-like peptide-1 receptor) (human) (P43220 24-463): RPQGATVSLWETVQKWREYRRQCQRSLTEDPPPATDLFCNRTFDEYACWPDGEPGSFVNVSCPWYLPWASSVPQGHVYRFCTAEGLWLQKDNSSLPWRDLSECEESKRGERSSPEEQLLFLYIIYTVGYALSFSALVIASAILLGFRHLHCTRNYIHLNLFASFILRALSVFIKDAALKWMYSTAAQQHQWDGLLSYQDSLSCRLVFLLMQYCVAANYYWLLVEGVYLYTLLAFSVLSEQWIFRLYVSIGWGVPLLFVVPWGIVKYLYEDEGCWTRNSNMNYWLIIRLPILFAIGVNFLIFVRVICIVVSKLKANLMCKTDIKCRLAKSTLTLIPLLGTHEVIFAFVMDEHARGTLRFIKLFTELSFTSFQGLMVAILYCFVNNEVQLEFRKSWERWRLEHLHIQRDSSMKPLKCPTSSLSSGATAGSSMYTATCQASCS

T1 sequence (P43220 24-463): as above

`CC[C@H](C)[C@H](NC(=O)[C@H](Cc1ccccc1)NC(=O)[C@H](CCC(=O)O)NC(=O)[C@H]1CNC[C@@H]1NC(=O)[C@H](C)NC(=O)[C@H](C)NC(=O)[C@H](CCC(N)=O)NC(=O)CNC(=O)[C@H](CCC(=O)O)NC(=O)[C@H](CC(C)C)NC(=O)[C@H](Cc1ccc(O)cc1)NC(=O)[C@H](CO)NC(=O)[C@H](CO)NC(=O)[C@@H](NC(=O)[C@H](CC(=O)O)NC(=O)[C@H](CO)NC(=O)[C@@H](NC(=O)[C@H](Cc1ccccc1)NC(=O)[C@@H](NC(=O)CNC(=O)[C@H](CCC(=O)O)NC(=O)[C@H](C)NC(=O)[C@@H](N)Cc1c[nH]cn1)[C@@H](C)O)[C@@H](C)O)C(C)C)C(=O)N[C@H]1CCC[C@@H]1C(=O)N[C@@H](Cc1c[nH]c2ccccc12)C(=O)N[C@@H](CC(C)C)C(=O)N[C@H](C(=O)N[C@H]1CNC[C@@H]1C(=O)NCC(=O)N[C@@H](CCCNC(=N)N)C(=O)NCC(N)=O)C(C)C` [α/β-Peptide 1] (H-HAEGTFTSDVSSYLEGQAA[X2]EFI[X1]WLV[X2]GRG-NH2): the Emax was 78 ± 4% on GLP-1R [1], 101 ± 1% at GLP-1R [2] and 88 ± 6% on GLP-1R [3].

In the case of `CC[C@H](C)[C@H](NC(=O)[C@H](Cc1ccccc1)NC(=O)[C@H](CCC(=O)O)NC(=O)[C@H]1CNC[C@@H]1NC(=O)[C@H](C)NC(=O)[C@H](C)NC(=O)[C@H](CCC(N)=O)NC(=O)[C@H]1CCC[C@@H]1NC(=O)[C@H](CCC(=O)O)NC(=O)[C@H](CC(C)C)NC(=O)[C@H](Cc1ccc(O)cc1)NC(=O)[C@H]1CCC[C@@H]1NC(=O)[C@H](CO)NC(=O)C(C)(C)NC(=O)[C@H](CC(=O)O)NC(=O)[C@H](CO)NC(=O)[C@@H](NC(=O)[C@H](Cc1ccccc1)NC(=O)[C@@H](NC(=O)CNC(=O)[C@H](CCC(=O)O)NC(=O)C(C)(C)NC(=O)[C@@H](N)Cc1c[nH]cn1)[C@@H](C)O)[C@@H](C)O)C(=O)N[C@H]1CCC[C@@H]1C(=O)N[C@@H](Cc1c[nH]c2ccccc12)C(=O)N[C@@H](CC(C)C)C(=O)N[C@H](C(=O)N[C@H]1CNC[C@@H]1C(=O)NCC(=O)N[C@@H](CCCNC(=N)N)C(=O)NCC(N)=O)C(C)C` [α/β-Peptide 4] (H-H[Aib]EGTFTSD[Aib]S[X1]YLE[X1]QAA[X2]EFI[X1]WLV[X2]GRG-NH2), in assay [4], the “control of blood glucose in vivo” value was “can control blood glucose in vivo”. The “duration of glucose control relative to GLP-1” value in assay [4] is given as “prolonged”. For the same compound, the “β-arrestin-2 recruitment, result in words” value at GLP-1R [5] is given as “no significant recruitment”. In addition, the “insulin secretagogue activity compared with GLP-1” value with mouse pancreatic islets is “indistinguishable”. In addition, the Emax is 13 ± 4% at GLP-1R [1], 60 ± 5% on GLP-1R [2] and 6 ± 8% on GLP-1R [3]. In addition, the “β-arrestin-1 recruitment, result in words” value on GLP-1R [3] (within the concentration range examined (up to 1 µM)) was “no significant recruitment”.

For the compound `CC[C@H](C)[C@H](NC(=O)[C@H](Cc1ccccc1)NC(=O)[C@H](CCC(=O)O)NC(=O)[C@H]1CNC[C@@H]1NC(=O)[C@H](C)NC(=O)[C@H](C)NC(=O)[C@H](CCC(N)=O)NC(=O)[C@H]1CCC[C@@H]1NC(=O)[C@H](CCC(=O)O)NC(=O)[C@H](CC(C)C)NC(=O)[C@H](Cc1ccc(O)cc1)NC(=O)[C@H]1CCC[C@@H]1NC(=O)[C@H](CO)NC(=O)[C@@H](NC(=O)[C@H](CC(=O)O)NC(=O)[C@H](CO)NC(=O)[C@@H](NC(=O)[C@H](Cc1ccccc1)NC(=O)[C@@H](NC(=O)CNC(=O)[C@H](CCC(=O)O)NC(=O)[C@H](C)NC(=O)[C@@H](N)Cc1c[nH]cn1)[C@@H](C)O)[C@@H](C)O)C(C)C)C(=O)N[C@@H](C)C(=O)N[C@@H](Cc1c[nH]c2ccccc12)C(=O)N[C@@H](CC(C)C)C(=O)N[C@H](C(=O)N[C@@H](CCCCN)C(=O)NCC(=O)N[C@@H](CCCNC(=N)N)C(=O)NCC(N)=O)C(C)C` [α/β-Peptide 8] (H-HAEGTFTSDVS[X1]YLE[X1]QAA[X2]EFIAWLVKGRG-NH2), the Emax on GLP-1R [1] was 63 ± 5%; at GLP-1R [2], 96 ± 1%; on GLP-1R [3], 43 ± 3%.

As to `CC[C@H](C)[C@H](NC(=O)[C@H](Cc1ccccc1)NC(=O)[C@H](CCC(=O)O)NC(=O)[C@H]1CNC[C@@H]1NC(=O)[C@H](C)NC(=O)[C@H](C)NC(=O)[C@H](CCC(N)=O)NC(=O)[C@H]1CCC[C@@H]1NC(=O)[C@H](CCC(=O)O)NC(=O)[C@H](CC(C)C)NC(=O)[C@H](Cc1ccc(O)cc1)NC(=O)[C@H]1CCC[C@@H]1NC(=O)[C@H](CO)NC(=O)C(C)(C)NC(=O)[C@H](CC(=O)O)NC(=O)[C@H](CO)NC(=O)[C@@H](NC(=O)[C@H](Cc1ccccc1)NC(=O)[C@@H](NC(=O)CNC(=O)[C@H](CCC(=O)O)NC(=O)[C@H](C)NC(=O)[C@@H](N)Cc1c[nH]cn1)[C@@H](C)O)[C@@H](C)O)C(=O)N[C@@H](C)C(=O)N[C@@H](Cc1c[nH]c2ccccc12)C(=O)N[C@@H](CC(C)C)C(=O)N[C@H](C(=O)N[C@@H](CCCCN)C(=O)NCC(=O)N[C@@H](CCCNC(=N)N)C(=O)NCC(N)=O)C(C)C` [α/β-Peptide 9] (H-HAEGTFTSD[Aib]S[X1]YLE[X1]QAA[X2]EFIAWLVKGRG-NH2), the Emax at GLP-1R [1] amounted to 59 ± 2%; on GLP-1R [2], 97 ± 2%; on GLP-1R [3], 41 ± 4%.

Consider `CC[C@H](C)[C@H](NC(=O)[C@H](Cc1ccccc1)NC(=O)[C@H](CCC(=O)O)NC(=O)[C@H]1CNC[C@@H]1NC(=O)[C@H](C)NC(=O)[C@H](C)NC(=O)[C@H](CCC(N)=O)NC(=O)CNC(=O)[C@H](CCC(=O)O)NC(=O)[C@H](CC(C)C)NC(=O)[C@H](Cc1ccc(O)cc1)NC(=O)[C@H]1CCC[C@@H]1NC(=O)[C@H](CO)NC(=O)[C@@H](NC(=O)[C@H](CC(=O)O)NC(=O)[C@H](CO)NC(=O)[C@@H](NC(=O)[C@H](Cc1ccccc1)NC(=O)[C@@H](NC(=O)CNC(=O)[C@H](CCC(=O)O)NC(=O)[C@H](C)NC(=O)[C@@H](N)Cc1c[nH]cn1)[C@@H](C)O)[C@@H](C)O)C(C)C)C(=O)N[C@@H](C)C(=O)N[C@@H](Cc1c[nH]c2ccccc12)C(=O)N[C@@H](CC(C)C)C(=O)N[C@H](C(=O)N[C@@H](CCCCN)C(=O)NCC(=O)N[C@@H](CCCNC(=N)N)C(=O)NCC(N)=O)C(C)C` [α/β-Peptide 13] (H-HAEGTFTSDVS[X1]YLEGQAA[X2]EFIAWLVKGRG-NH2), for which the Emax at GLP-1R [1] was found to be 74 ± 4%; on GLP-1R [2] it was 104 ± 1%; on GLP-1R [3], 80 ± 3%.

Take GLP-1(7–36)NH2 (peptide): the cAMP production (GloSensor reporter cells), pEC50 in assay [6] was -10.3 pEC50 (M).
